Experimental data reported in PubChem BioAssay (NCI).
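Cultured in 96-well plates, cells were exposed to test compound for 48 hours across five concentrations. GI50: concentration for 50% inhibition of growth. TGI denotes the concentration required for complete inhibition of growth.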

Experiments:
Experiment in all cases: NCI-60 cell line screen, 48 h
[1] = tested on: SN12C renal
[2] = tested on: M14 melanoma
[3] = tested on: EKVX NSCLC
[4] = tested on: SF-268 CNS
[5] = tested on: TK-10 renal
[6] = tested on: CCRF-CEM leukemia
[7] = tested on: SNB-19 CNS
[8] = tested on: MCF7 breast
[9] = tested on: HCT-15 colon
[10] = tested on: NCI-H522 lung
[11] = tested on: MDA-MB-231 breast
[12] = tested on: PC-3 prostate
[13] = tested on: T-47D breast
[14] = tested on: A498 renal
[15] = tested on: SNB-75 CNS
[16] = tested on: SW-620 colon
[17] = tested on: NCI-H460 lung
[18] = tested on: UACC-257 melanoma
[19] = tested on: HL-60(TB) leukemia
[20] = tested on: HOP-92 NSCLC
[21] = tested on: 786-0 renal
[22] = tested on: OVCAR-5 ovarian
[23] = tested on: U251 CNS
[24] = tested on: HCC-2998 colon
[25] = tested on: K-562 leukemia
[26] = tested on: SK-OV-3 ovarian
[27] = tested on: UO-31 renal
[28] = tested on: NCI-H23 lung
[29] = tested on: HCT-116 colon
[30] = tested on: MOLT-4 leukemia
[31] = tested on: HS 578T breast
[32] = tested on: BT-549 breast
[33] = tested on: RXF 393 renal
[34] = tested on: LOX IMVI melanoma
[35] = tested on: SF-539 CNS
[36] = tested on: SK-MEL-28 melanoma
[37] = tested on: OVCAR-3 ovarian
[38] = tested on: COLO 205 colon
[39] = tested on: ACHN renal
[40] = tested on: CAKI-1 renal
[41] = tested on: OVCAR-8 ovarian
[42] = tested on: DU-145 prostate
[43] = tested on: KM12 colon
[44] = tested on: SK-MEL-5 melanoma
[45] = tested on: NCI/ADR-RES ovarian
[46] = tested on: SF-295 CNS
[47] = tested on: OVCAR-4 ovarian
[48] = tested on: NCI-H226 lung
[49] = tested on: IGROV1 ovarian
[50] = tested on: MDA-MB-435
[51] = tested on: A549 NSCLC
[52] = tested on: SK-MEL-2 melanoma
[53] = tested on: RPMI-8226 leukemia
[54] = tested on: HT29 colon
[55] = tested on: MALME-3M melanoma
[56] = tested on: UACC-62 melanoma
[57] = tested on: HOP-62 NSCLC

COc1cc2c3c(c4c5ccccc5[nH]c4c2c(OC)c1OC)C(=O)N(CCN1CCCCC1)C3=O
GI50 [1]: 1100 nM | TGI [1]: 2540 nM | GI50 [2]: 1820 nM | TGI [2]: 4250 nM | GI50 [3]: 1500 nM | TGI [3]: 3420 nM | GI50 [4]: 1150 nM | TGI [4]: 2960 nM | GI50 [5]: 1300 nM | TGI [5]: 2720 nM | GI50 [6]: 855 nM | TGI [6]: > 100000 nM | GI50 [7]: 1050 nM | TGI [7]: 2420 nM | GI50 [8]: 734 nM | TGI [8]: 3090 nM | GI50 [9]: 498 nM | TGI [9]: 2070 nM | GI50 [10]: 794 nM | TGI [10]: 2760 nM | GI50 [11]: 1470 nM | TGI [11]: 3080 nM | GI50 [12]: 1220 nM | TGI [12]: 2640 nM | GI50 [13]: 6090 nM | TGI [13]: > 25500 nM | GI50 [14]: 1350 nM | TGI [14]: 4870 nM | GI50 [15]: 2470 nM | TGI [15]: 7190 nM | GI50 [16]: 474 nM | TGI [16]: 2560 nM | GI50 [17]: 654 nM | TGI [17]: 2100 nM | GI50 [18]: 2790 nM | TGI [18]: 9620 nM | GI50 [19]: 8150 nM | TGI [19]: > 41000 nM | GI50 [20]: 1300 nM | TGI [20]: 5210 nM | GI50 [21]: 1270 nM | TGI [21]: 2870 nM | GI50 [22]: 1290 nM | TGI [22]: 3050 nM | GI50 [23]: 1120 nM | TGI [23]: 2490 nM | GI50 [24]: 1320 nM | TGI [24]: 3450 nM | GI50 [25]: 710 nM | GI50 [26]: 1180 nM | TGI [26]: 2530 nM | GI50 [27]: 1030 nM | TGI [27]: 2320 nM | GI50 [28]: 1120 nM | TGI [28]: 2680 nM | GI50 [29]: 351 nM | TGI [29]: 1460 nM | GI50 [30]: 536 nM | TGI [30]: 9230 nM | GI50 [31]: 1840 nM | TGI [31]: 4590 nM | GI50 [32]: 4600 nM | TGI [32]: 13400 nM | GI50 [33]: 502 nM | TGI [33]: 1890 nM | GI50 [34]: 1050 nM | TGI [34]: 2450 nM | GI50 [35]: 1380 nM | TGI [35]: 2720 nM | GI50 [36]: 1740 nM | TGI [36]: 3320 nM | GI50 [37]: 1310 nM | TGI [37]: 2770 nM | GI50 [38]: 849 nM | TGI [38]: 3250 nM | GI50 [39]: 400 nM | TGI [39]: 1600 nM | GI50 [40]: 811 nM | TGI [40]: 2300 nM | GI50 [41]: 487 nM | TGI [41]: 2360 nM | GI50 [42]: 1220 nM | TGI [42]: 2540 nM | GI50 [43]: 1020 nM | TGI [43]: 2590 nM | GI50 [44]: 1880 nM | TGI [44]: 5310 nM | GI50 [45]: 892 nM | TGI [45]: 3190 nM | GI50 [46]: 1250 nM | TGI [46]: 3130 nM | GI50 [47]: 1260 nM | TGI [47]: 3140 nM | GI50 [48]: 1080 nM | TGI [48]: 4570 nM | GI50 [49]: 661 nM | TGI [49]: 2220 nM | GI50 [50]: 1480 nM | TGI [50]: 3270 nM | GI50 [51]: 611 nM | TGI [51]: 2300 nM | GI50 [52]: 3170 nM | TGI [52]: 11200 nM | GI50 [53]: 1060 nM | TGI [53]: 4170 nM | GI50 [54]: 417 nM | TGI [54]: 1880 nM | GI50 [55]: 1360 nM | TGI [55]: 2850 nM | GI50 [56]: 3880 nM | TGI [56]: 9120 nM | GI50 [57]: 721 nM | TGI [57]: 2790 nM

CC(C)Oc1ccc(C(=O)N[C@H](CNC(=O)CN(C)C)Cc2ccc(-c3cn4cccc([C@H](C)O)c4n3)cc2)cc1Cl
GI50 [1]: 66.1 nM | TGI [1]: 20400 nM | GI50 [2]: 30.1 nM | TGI [2]: 150 nM | GI50 [3]: 54.7 nM | TGI [3]: 21600 nM | GI50 [4]: 72.7 nM | TGI [4]: 20900 nM | GI50 [5]: 11800 nM | TGI [5]: 24600 nM | GI50 [7]: 62.5 nM | TGI [7]: 23900 nM | GI50 [8]: 36.6 nM | TGI [8]: 19500 nM | GI50 [9]: 423 nM | TGI [9]: 19400 nM | GI50 [10]: 22.9 nM | TGI [10]: 69.8 nM | GI50 [11]: 44.5 nM | TGI [11]: 8200 nM | GI50 [12]: 66.4 nM | TGI [12]: 21400 nM | GI50 [13]: 3720 nM | TGI [13]: 30300 nM | GI50 [14]: 213 nM | TGI [14]: 13900 nM | GI50 [15]: 22.2 nM | TGI [15]: 13300 nM | GI50 [16]: 61.3 nM | TGI [16]: 21600 nM | GI50 [17]: 36 nM | TGI [17]: 12600 nM | GI50 [18]: 1360 nM | TGI [18]: 11300 nM | GI50 [20]: 11200 nM | TGI [20]: 24300 nM | GI50 [21]: 57.8 nM | TGI [21]: 17800 nM | GI50 [22]: 77.1 nM | TGI [22]: 22200 nM | GI50 [23]: 53.4 nM | TGI [23]: 19200 nM | GI50 [24]: 69.5 nM | TGI [24]: 17300 nM | GI50 [25]: 37.5 nM | TGI [25]: 14700 nM | GI50 [26]: 69.4 nM | TGI [26]: 22900 nM | GI50 [27]: 2560 nM | TGI [27]: 19100 nM | GI50 [28]: 56.6 nM | TGI [28]: 21500 nM | GI50 [29]: 35.5 nM | TGI [29]: 14200 nM | GI50 [30]: 44.1 nM | TGI [30]: 18000 nM | GI50 [31]: 1380 nM | TGI [31]: 33400 nM | GI50 [32]: 68 nM | TGI [32]: 17600 nM | GI50 [33]: 71.1 nM | TGI [33]: 13400 nM | GI50 [34]: 73.6 nM | TGI [34]: 14500 nM | GI50 [35]: 32.3 nM | TGI [35]: 1190 nM | GI50 [36]: 4000 nM | TGI [36]: 20300 nM | GI50 [37]: 39.3 nM | TGI [37]: 15700 nM | GI50 [38]: 39.6 nM | TGI [38]: 13200 nM | GI50 [39]: 6600 nM | TGI [39]: 21800 nM | GI50 [40]: 538 nM | TGI [40]: 17900 nM | GI50 [41]: 67.4 nM | TGI [41]: 26600 nM | GI50 [42]: 38.5 nM | TGI [42]: 13100 nM | GI50 [43]: 38.1 nM | TGI [43]: 18000 nM | GI50 [44]: 330 nM | TGI [44]: 2820 nM | GI50 [45]: 2640 nM | TGI [45]: 19800 nM | GI50 [46]: 37.2 nM | TGI [46]: 14600 nM | GI50 [47]: 316 nM | TGI [47]: 18700 nM | GI50 [48]: 10900 nM | TGI [48]: 28800 nM | GI50 [49]: 11100 nM | TGI [49]: 31000 nM | GI50 [50]: 29.3 nM | TGI [50]: 12800 nM | GI50 [51]: 50.7 nM | TGI [51]: 22100 nM | GI50 [52]: 43.4 nM | TGI [52]: 11100 nM | GI50 [53]: 39.9 nM | TGI [53]: 19800 nM | GI50 [54]: 35 nM | TGI [54]: 13000 nM | GI50 [55]: 78 nM | TGI [55]: 16300 nM | GI50 [56]: 70.6 nM | TGI [56]: 24300 nM
